# According to patent publication US9139485B2, “Plant treatment agent” (UNIVERSITI PUTRA MALAYSIA, priority 2011, dated 2015):
# Marks after values point to notes of the source that are not given here.
# Columns and labels:
# [1] = system: Hybrid no. 5 variety (Zea mays L.); assay: Greenhouse pot experiment: dry weight, N, P, K uptake and use efficiency of maize plant; assay type: in vivo; conditions: 56 days after planting
# Description: A pot experiment was conducted in a greenhouse of Universiti Putra Malaysia Bintulu Sarawak Campus, Malaysia using randomized complete block design (RCBD) with three replications. Each pot size was 22×28 cm. Each was filled with 10 kg soil (based on bulk density of the soil). Hybrid no. 5 variety (Zea mays L.) was used as the test crop. Its N, P, and K requirement were 60 kg N, 60 kg P2O5 and 40 kg K2O (130 kg ha^−1 urea: 130 kg ha^−1 TSP: 67 kg ha^−1 KCl). The fertilizer requirement was scaled down to per pot basis equivalent to 2.02 g of urea, […]. The volume of water used for each pot was based on field capacity (70%). The three treatments devised for this experiment were as follows: • i. No fertilizer (T0) • ii. 2.02 g urea (T1) • iii. 2.02 g urea+7 L peat soil water (T2)
# All treatments were applied on the 10th day after planting (DAP). However TSP and KCl which were common to all the treatments were applied on 10 DAP and 28 DAP. The plants were monitored until tassel stage. Tassel stage is the maximum growth stage for plants before they enter productive stage.
# Harvesting was done on the 56th DAP. The whole plant including leaves and stem were harvested. The remaining roots in the soil were removed carefully. They were cleaned using tap and distilled water. The plant parts (leaves, stem and roots) were then oven-dried at 60° C. until constant weight was attained afterwhich they weighed using a digital balance. Soil samples were also taken from the pots, air-dried, pounded and sieved to a pass 2 mm before they were analyzed for pH, exchangeable cations (K, Mg, and Ca), total carbon, total N, available P, exchangeable ammonium and available nitrate, using standard procedures. Each plants part was ground and analyzed for total K, Mg, Ca, Na, N, and P.
# Nitrogen, P and K uptake in leaves, stem and roots were determined by multiplying the concentration with the dry weight of the plant parts. Nitrogen, P and K use efficiency were determined by the formula of Pomares-Gracia and Pratt (1987).
# Analysis of variance (ANOVA) was used to test the effect of treatments while means of treatments were compared using Duncan's Test. Statistical Analysis System (SAS Ver. 9.2) was used for the statistical analysis.
# [2] = Selected chemical properties of peat soil water and urea; assay type: physicochemical; conditions: glass electrode
# Description: Peat soil water (waste water) was collected from natural flows of peat water at Suai Miri Sarawak, Malaysia. The mineral soil used was Bekenu Series (Fine loamy, siliceous, isohyperthermic, red-yellow to yellow Tipik Tualemkuts). It was sampled in an undisturbed area of Universiti Putra Malaysia Bintulu Sarawak Campus, Malaysia using an auger. The soil taken at 0-15 cm depth was air dried and ground to pass 2.0 mm sieve for laboratory experiment. The soil texture was determined using the hydrometer method (Bouyoucos, 1962) and its field capacity and bulk density determined by the method described by Tan (2005). The pH of the soil was determined in a 1:2 soil:distilled water suspension and KCl using a glass electrode. However, the pH of the peat soil water was determined directly from filtered samples using a glass electrode. The soil total carbon, N and organic matter were determined using LECO CHNS Analyzer (Leco Truspec Micro Elemental Analyzer CHNS, New York). Soil available P was extracted using the double acid method (Tan, 2005) followed by blue method (Murphy and Riley, 1962). The Kjedhal method was used to determine total N. Exchangeable cations were extracted using leaching method and their concentrations were afterwards determined using followed Atomic Absorption Spectrometry (AAS). Soil CEC was determined by the leaching method followed by steam distillation.
structure (smiles),measurement,setting,value
"NC(N)=O [Treatment T1, urea]","dry weight of maize plant, Leaves",[1],6.00^b g plant^−1
same,"dry weight of maize plant, Roots",[1],3.18^b g plant^−1
same,"dry weight of maize plant, Stems",[1],5.71^d g plant^−1
same,"dry weight of maize plant, Total",[1],14.89^b g plant^−1
same,K use efficiency of maize plant,[1]; Leaves,1.17^a %
same,N use efficiency of maize plant,[1]; Leaves,1.26^a %
same,P use efficiency of maize plant,[1]; Leaves,0.31^a %
same,K use efficiency of maize plant,[1]; Roots,1.75^a %
same,N use efficiency of maize plant,[1]; Roots,0.37^a %
same,P use efficiency of maize plant,[1]; Roots,0.40^a %
same,K use efficiency of maize plant,[1]; Stem,2.17^a %
same,N use efficiency of maize plant,[1]; Stem,0.24^d %
same,P use efficiency of maize plant,[1]; Stem,0.32^a %
same,K use efficiency of maize plant,[1]; Total,5.09^a %
same,N use efficiency of maize plant,[1]; Total,1.87^a %
same,P use efficiency of maize plant,[1]; Total,1.03^a %
same,pHw,[2]; listed as Urea,8.00
same,pHw,[2]; listed as urea,basic
